# Laboratory results from patent US11661403B2, “Oxadiazole compounds” (Vivace Therapeutics, Inc., priority 2018, dated 2023).
# System: 8XTBD luciferase reporter (YAP) in HEK293T cells
# Assay: YAP Reporter Assay
# Assay type: cell-based
# Conditions: Homo sapiens, HEK-293T; HEK293T cells stably transfected with 8XTBD luciferase reporter and pRLTK; 24-hr incubation; top concentration 3 μM; read-out: Firefly Luciferase IC50
row,Structure (SMILES),IC50 [nM]
1,"CC1(c2nnc(-c3ccccc3Nc3ccc(C(F)(F)F)cc3)o2)CO1 (stereo not drawn) [Compound 132, 2-(5-(2-methyloxiran-2-yl)-1,3,4-oxadiazol-2-yl)-N-(4-(trifluoromethyl)phenyl)aniline]",< 100
2,"CN(C#N)CC1(c2nnc(-c3ccccc3Nc3ccc(C(F)(F)F)cc3)o2)CC1 [Compound 140, N-methyl-N-((1-(5-(2-((4-(trifluoromethyl)phenyl)amino)phenyl)-1,3,4-oxadiazol-2-yl)cyclopropyl)methyl)cyanamide]",< 100
3,"CN(C#N)CCCc1nnc(-c2ccccc2Nc2ccc(C(F)(F)F)cc2)o1 [Compound 129, N-methyl-N-(3-(5-(2-((4-(trifluoromethyl)phenyl)amino)phenyl)-1,3,4-oxadiazol-2-yl)propyl)cyanamide]",< 100
4,"COCCNC(=O)c1nnc(-c2ccccc2Nc2ccc(C(F)(F)F)cc2)o1 [Compound 190, N-(2-methoxyethyl)-5-(2-((4-(trifluoromethyl)phenyl)amino)phenyl)-1,3,4-oxadiazole-2-carboxamide]",< 100
5,"CC(=O)c1nnc(-c2ccccc2Nc2ccc(C(F)(F)F)cc2)o1 [Compound 85, 1-(5-(2-((4-(trifluoromethyl)phenyl)amino)phenyl)-1,3,4-oxadiazol-2-yl)ethan-1-one]",< 100
6,"OC(c1nnc(-c2ccccc2Nc2ccc(C(F)(F)F)cc2)o1)C(F)F (stereo not drawn) [Compound 60, 2,2-difluoro-1-(5-(2-((4-(trifluoromethyl)phenyl)amino)phenyl)-1,3,4-oxadiazol-2-yl)ethanol]",< 100
7,"OC(CCl)c1nnc(-c2ccccc2Nc2ccc(C(F)(F)F)cc2)o1 (stereo not drawn) [Compound 81, 2-chloro-1-(5-(2-((4-(trifluoromethyl)phenyl)amino)phenyl)-1,3,4-oxadiazol-2-yl)ethan-1-ol]",< 100
8,"CCOC(=O)Cc1nnc(-c2ccccc2Nc2ccc(C(F)(F)F)cc2)o1 [Compound 1, ethyl 2-(5-(2-((4-(trifluoromethyl)phenyl)amino)phenyl)-1,3,4-oxadiazol-2-yl) acetate]",100 to 1000
9,"FC(F)(F)c1ccc(Nc2ccccc2-c2nnco2)cc1 [Compound 20, 2-(1,3,4-oxadiazol-2-yl)-N-[4-(trifluoromethyl)phenyl]aniline]",100 to 1000
10,"CC(CO)NC(=O)c1nnc(-c2ccccc2Nc2ccc(C(F)(F)F)cc2)o1 (stereo not drawn) [Compound 189, N-(1-hydroxypropan-2-yl)-5-(2-((4-(trifluoromethyl)phenyl)amino)phenyl)-1,3,4-oxadiazole-2-carboxamide]",100 to 1000
11,"CN(C#N)C(C)(C)c1nnc(-c2ccccc2Nc2ccc(C(F)(F)F)cc2)o1 [Compound 158, N-methyl-N-(2-(5-(2-((4-(trifluoromethyl)phenyl)amino)phenyl)-1,3,4-oxadiazol-2-yl)propan-2-yl)cyanamide]",< 100
12,"CC(O)c1nnc(-c2ccccc2Nc2ccc(C(F)(F)F)cc2)o1 (stereo not drawn) [Compound 41, 1-(5-(2-((4-(trifluoromethyl)phenyl)amino)phenyl)-1,3,4-oxadiazol-2-yl)ethanol]",< 100
13,"OC1(c2nnc(-c3ccccc3Nc3ccc(C(F)(F)F)cc3)o2)CC1 [Compound 44, 1-(5-(2-((4-(trifluoromethyl)phenyl)amino)phenyl)-1,3,4-oxadiazol-2-yl)cyclopropanol]",< 100
14,"OC(c1nnc(-c2ccccc2Nc2ccc(C(F)(F)F)cc2)o1)C(F)(F)F (stereo not drawn) [Compound 51, 2,2,2-trifluoro-1-(5-(2-((4-(trifluoromethyl)phenyl)amino)phenyl)-1,3,4-oxadiazol-2-yl)ethanol]",< 100
15,"OC1(c2nnc(-c3ccccc3Nc3ccc(C(F)(F)F)cc3)o2)CCOC1 (stereo not drawn) [Compound 56, 3-(5-(2-((4-(trifluoromethyl)phenyl)amino)phenyl)-1,3,4-oxadiazol-2-yl)tetra hydrofuran-3-ol]",< 100
16,"COCC(C)NC(=O)c1nnc(-c2ccccc2Nc2ccc(C(F)(F)F)cc2)o1 (stereo not drawn) [Compound 188, N-(1-methoxypropan-2-yl)-5-(2-((4-(trifluoromethyl)phenyl)amino)phenyl)-1,3,4-oxadiazole-2-carboxamide]",100 to 1000
17,"O=C1OCC(c2nnc(-c3ccccc3Nc3ccc(C(F)(F)F)cc3)o2)O1 (stereo not drawn) [Compound 29, 4-[5-[2-[4-(trifluoromethyl)anilino]phenyl]-1,3,4-oxadiazol-2-yl]-1,3-dioxolan-2-one]",< 100
18,"CCNCCc1nnc(-c2ccccc2Nc2ccc(C(F)(F)F)cc2)o1 [Compound 94, 2-(5-(2-(ethylamino)ethyl)-1,3,4-oxadiazol-2-yl)-N-(4-(trifluoromethyl)phenyl)aniline]",1000 to 5000

row,Structure (SMILES),IC50 [nM]
1,"CC(C)N(C#N)CCc1nnc(-c2ccccc2Nc2ccc(C(F)(F)F)cc2)o1 [Compound 93, N-isopropyl-N-(2-(5-(2-((4-(trifluoromethyl)phenyl)amino)phenyl)-1,3,4-oxadiazol-2-yl)ethyl)cyanamide]",100 to 1000
2,"O=c1[nH]c(-c2nnc(-c3ccccc3Nc3ccc(C(F)(F)F)cc3)o2)no1 [Compound 50, 3-[5-[2-[4-(trifluoromethyl)anilino]phenyl]-1,3,4-oxadiazol-2-yl]-4H-1,2,4-oxadiazol-5-one]",1000 to 5000
3,"CCOC(=O)c1nnc(-c2ccccc2Nc2ccc(C(F)(F)F)cc2)o1 [Compound 3, ethyl 5-(2-((4-(trifluoromethyl)phenyl)amino)phenyl)-1,3,4-oxadiazole-2-carboxylate]",< 100
4,"CC(C)(C#N)c1nnc(-c2ccccc2Nc2ccc(C(F)(F)F)cc2)o1 [Compound 164, 2-methyl-2-(5-(2-((4-(trifluoromethyl)phenyl)amino)phenyl)-1,3,4-oxadiazol-2-yl)propanenitrile]",< 100
5,"Cc1ccc(S(=O)(=O)OC2(c3nnc(-c4ccccc4Nc4ccc(C(F)(F)F)cc4)o3)CC2)cc1 [Compound 53, 1-(5-(2-((4-(trifluoromethyl)phenyl)amino)phenyl)-1,3,4-oxadiazol-2-yl)cyclo propyl 4-methylbenzenesulfonate]",100 to 1000
6,"CNC1(c2nnc(-c3ccccc3Nc3ccc(C(F)(F)F)cc3)o2)CC1 [Compound 153, 2-(5-(1-(methylamino)cyclopropyl)-1,3,4-oxadiazol-2-yl)-N-(4-(trifluoromethyl)phenyl)aniline]",100 to 1000
7,"CC(C)(C)OC(=O)NC1(c2nnc(-c3ccccc3Nc3ccc(C(F)(F)F)cc3)o2)CC1 [Compound 57, Tert-Butyl (1-(5-(2-((4-(trifluoromethyl)phenyl)amino)phenyl)-1,3,4-oxadiazol-2-yl)cyclopropyl)carbamate]",100 to 1000
8,"Nc1nnc(-c2ccccc2Nc2ccc(C(F)(F)F)cc2)o1 [Compound 4, 5-(2-((4-(trifluoromethyl)phenyl)amino)phenyl)-1,3,4-oxadiazol-2-amine]",100 to 1000
9,"Cc1ocnc1-c1nnc(-c2ccccc2Nc2ccc(C(F)(F)F)cc2)o1 [Compound 35, 2-(5-(5-methyloxazol-4-yl)-1,3,4-oxadiazol-2-yl)-N-(4-(trifluoromethyl)phenyl) aniline]",100 to 1000
10,"CNC(C)(C)c1nnc(-c2ccccc2Nc2ccc(C(F)(F)F)cc2)o1 [Compound 156, 2-(5-(2-(methylamino)propan-2-yl)-1,3,4-oxadiazol-2-yl)-N-(4-(trifluoromethyl)phenyl)aniline]",100 to 1000
11,"CS(=O)(=O)c1nnc(-c2ccccc2Nc2ccc(C(F)(F)F)cc2)o1 [Compound 71, 2-(5-(methylsulfonyl)-1,3,4-oxadiazol-2-yl)-N-(4-(trifluoromethyl)phenyl)aniline]",100 to 1000
12,"CC(O)(CC#N)c1nnc(-c2ccccc2Nc2ccc(C(F)(F)F)cc2)o1 (stereo not drawn) [Compound 130, 3-hydroxy-3-(5-(2-((4-(trifluoromethyl)phenyl)amino)phenyl)-1,3,4-oxadiazol-2-yl)butanenitrile]",< 100
13,"CSc1nnc(-c2ccccc2Nc2ccc(C(F)(F)F)cc2)o1 [Compound 72, 2-(5-(methylthio)-1,3,4-oxadiazol-2-yl)-N-(4-(trifluoromethyl)phenyl)aniline]",100 to 1000
14,"CC1(c2nnc(-c3ccccc3Nc3ccc(C(F)(F)F)cc3)o2)CCCO1 (stereo not drawn) [Compound 178, 2-(5-(2-methyltetrahydrofuran-2-yl)-1,3,4-oxadiazol-2-yl)-N-(4-(trifluoromethyl)phenyl)aniline]",< 100
15,"OC(CF)c1nnc(-c2ccccc2Nc2ccc(C(F)(F)F)cc2)o1 (stereo not drawn) [Compound 203, 2-fluoro-1-(5-(2-((4-(trifluoromethyl)phenyl)amino)phenyl)-1,3,4-oxadiazol-2-yl)ethan-1-ol]",< 100
16,"CS(=O)(=O)N(CCO)c1nnc(-c2ccccc2Nc2ccc(C(F)(F)F)cc2)o1 [Compound 32, N-(2-hydroxyethyl)-N-(5-(2-((4-(trifluoromethyl)phenyl)amino)phenyl)-1,3,4-oxadiazol-2-yl)methanesulfonamide]",100 to 1000
17,"N#Cc1nnc(-c2ccccc2Nc2ccc(C(F)(F)F)cc2)o1 [Compound 22, 5-[2-[4-(trifluoromethyl)anilino]phenyl]-1,3,4-oxadiazole-2-carbonitrile]",< 100

# Same assay, conditions: Homo sapiens, HEK-293T; […]; 24-hr incubation; top concentration 3 μM; read-out: Firefly Luciferase IC50
row,Structure (SMILES),IC50 [nM]
1,"CC#CCOc1nnc(-c2ccccc2Nc2ccc(C(F)(F)F)cc2)o1 [Compound 70, 2-(5-(but-2-yn-1-yloxy)-1,3,4-oxadiazol-2-yl)-N-(4-(trifluoromethyl)phenyl)aniline]",1000 to 5000
2,"C#CCNC(=O)C(C)(C)c1nnc(-c2ccccc2Nc2ccc(C(F)(F)F)cc2)o1 [Compound 112, 2-methyl-N-(prop-2-yn-1-yl)-2-(5-(2-((4-(trifluoromethyl)phenyl)amino)phenyl)-1,3,4-oxadiazol-2-yl)propanamide]",1000 to 5000
3,"CS(=O)(=O)Nc1nnc(-c2ccccc2Nc2ccc(C(F)(F)F)cc2)o1 [Compound 38, N-(5-(2-((4-(trifluoromethyl)phenyl)amino)phenyl)-1,3,4-oxadiazol-2-yl)methanesulfonamide]",100 to 1000
4,"CC(C)NC(=O)c1nnc(-c2ccccc2Nc2ccc(C(F)(F)F)cc2)o1 [Compound 196, N-isopropyl-5-(2-((4-(trifluoromethyl)phenyl)amino)phenyl)-1,3,4-oxadiazole-2-carboxamide]",100 to 1000
